Reference: paper PMC5501787, “Heliosterpenoids A and B, two Novel Jatrophane-Derived Diterpenoids with a 5/6/4/6 Ring System from Euphorbia helioscopia” (Scientific Reports, 2017)
pIC50: −log10 of the molar value.

Target: P-glycoprotein (ABCB1) (Homo sapiens, UniProt P08183)
Assay: inhibition of P-gp-mediated adriamycin efflux in MCF-7/ADR cells
Format: cell-based

Chain of P-glycoprotein (ABCB1) (P08183 whole entry): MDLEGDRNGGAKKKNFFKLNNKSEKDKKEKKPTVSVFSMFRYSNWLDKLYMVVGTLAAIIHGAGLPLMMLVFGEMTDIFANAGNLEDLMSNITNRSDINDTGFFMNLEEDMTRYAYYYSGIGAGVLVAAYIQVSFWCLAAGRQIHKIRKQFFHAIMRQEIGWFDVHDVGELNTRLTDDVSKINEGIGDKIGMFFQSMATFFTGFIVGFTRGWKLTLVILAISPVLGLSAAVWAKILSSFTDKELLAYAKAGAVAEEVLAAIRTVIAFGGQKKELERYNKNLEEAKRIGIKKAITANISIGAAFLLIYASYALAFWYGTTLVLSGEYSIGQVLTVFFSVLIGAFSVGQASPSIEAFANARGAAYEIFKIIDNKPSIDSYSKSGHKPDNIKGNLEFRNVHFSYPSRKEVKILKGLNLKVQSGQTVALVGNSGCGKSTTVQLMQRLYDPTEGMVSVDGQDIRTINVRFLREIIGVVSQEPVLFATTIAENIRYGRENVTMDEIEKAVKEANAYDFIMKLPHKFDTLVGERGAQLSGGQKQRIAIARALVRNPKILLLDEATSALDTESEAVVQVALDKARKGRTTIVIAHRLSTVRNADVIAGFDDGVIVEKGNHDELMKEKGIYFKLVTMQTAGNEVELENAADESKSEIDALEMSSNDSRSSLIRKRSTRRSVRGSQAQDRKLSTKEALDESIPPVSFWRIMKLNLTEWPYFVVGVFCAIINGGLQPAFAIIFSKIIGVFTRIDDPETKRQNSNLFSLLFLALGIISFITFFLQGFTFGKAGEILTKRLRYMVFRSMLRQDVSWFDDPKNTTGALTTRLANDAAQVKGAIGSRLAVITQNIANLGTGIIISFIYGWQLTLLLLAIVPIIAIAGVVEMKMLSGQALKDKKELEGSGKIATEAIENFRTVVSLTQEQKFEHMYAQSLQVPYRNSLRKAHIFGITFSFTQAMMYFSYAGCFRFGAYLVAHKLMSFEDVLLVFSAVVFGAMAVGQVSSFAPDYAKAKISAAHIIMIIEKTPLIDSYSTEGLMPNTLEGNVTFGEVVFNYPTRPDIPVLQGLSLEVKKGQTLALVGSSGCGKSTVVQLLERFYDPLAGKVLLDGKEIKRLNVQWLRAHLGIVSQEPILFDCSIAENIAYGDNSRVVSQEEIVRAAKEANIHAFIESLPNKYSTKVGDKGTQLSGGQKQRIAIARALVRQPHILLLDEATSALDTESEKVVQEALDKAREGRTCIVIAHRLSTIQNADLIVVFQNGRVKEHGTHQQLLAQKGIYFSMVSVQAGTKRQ

| Structure (SMILES) | pIC50 |
| --- | --- |
| CC(=O)O[C@H]1[C@@H](C)[C@H]2[C@@H]([C@H]3[C@@H](OC(=O)c4ccccc4)[C@@H](C)C[C@@]31O)[C@]1(C)C(=O)C=CC(C)(C)[C@H]21 [compound 2, Heliosterpenoid B] | 5.99 |
| CC(=O)O[C@@H]1[C@@H](C)[C@H]2[C@@H]([C@H]3[C@@H](OC(=O)c4ccccc4)[C@H](C)C[C@@]31OC(C)=O)[C@]1(C)C=CC(=O)C(C)(C)[C@H]21 [compound 1, Heliosterpenoid A] | 5.89 |
